Test results as given in PubChem BioAssay (NCI).
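1) Cells in 96-well plates. 2) Compound, 48 h, 5 concentrations. 3) Linear interpolation between surrounding doses. 4) Unreached endpoint = highest concentration. Abbreviation: GI50, concentration required for 50% inhibition of growth. TGI: total growth inhibition.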

What was measured:
Assay in all cases: NCI-60 cell line screen, 48 h
UO-31 renal = tested on: UO-31 renal
HCC-2998 colon = tested on: HCC-2998 colon
SF-295 CNS = tested on: SF-295 CNS
OVCAR-5 ovarian = tested on: OVCAR-5 ovarian
A549 NSCLC = tested on: A549 NSCLC
MOLT-4 leukemia = tested on: MOLT-4 leukemia
SK-OV-3 ovarian = tested on: SK-OV-3 ovarian
MALME-3M melanoma = tested on: MALME-3M melanoma
SNB-19 CNS = tested on: SNB-19 CNS
HCT-15 colon = tested on: HCT-15 colon

| Compound | TGI (UO-31 renal) [µM] | TGI (HCC-2998 colon) [µM] | TGI (SF-295 CNS) [µM] | TGI (OVCAR-5 ovarian) [µM] | TGI (A549 NSCLC) [µM] | TGI (MOLT-4 leukemia) [µM] | TGI (SK-OV-3 ovarian) [µM] | TGI (MALME-3M melanoma) [µM] | TGI (SNB-19 CNS) [µM] | TGI (HCT-15 colon) [µM] | GI50 (UO-31 renal) [µM] | GI50 (HCC-2998 colon) [µM] | GI50 (SF-295 CNS) [µM] | GI50 (OVCAR-5 ovarian) [µM] | GI50 (A549 NSCLC) [µM] | GI50 (MOLT-4 leukemia) [µM] | GI50 (SK-OV-3 ovarian) [µM] | GI50 (MALME-3M melanoma) [µM] | GI50 (SNB-19 CNS) [µM] | GI50 (HCT-15 colon) [µM] |
| --- | --- | --- | --- | --- | --- | --- | --- | --- | --- | --- | --- | --- | --- | --- | --- | --- | --- | --- | --- | --- |
| COc1ccc([N+](=O)[O-])c2c(NCCCN(C)C)c3ccccc3nc12 | 1.15 | 0.0727 | 0.693 | 0.984 | 0.895 | 1.39 | 2.38 | 0.336 | 3.51 | 1.39 | – | – | – | – | – | – | – | – | – | – |
| Cc1nc2sc(C(=O)Nc3cccc(Cl)c3C)c(N)c2cc1C(=O)/C=C/c1ccccc1 | 1.1 | 1.57 | 2.1 | 1.74 | 6.68 | > 50 | 13 | 4.47 | 3.11 | 0.817 | 0.438 | 0.827 | 0.446 | 0.714 | 0.476 | 0.76 | 1.44 | 0.315 | 0.651 | 0.183 |
| COc1cc(Nc2nccc(Nc3ccc4c(C)[nH]nc4c3)n2)cc(OC)c1OC | 5.19 | 8.46 | 9.77 | 20.8 | 5.41 | 19.2 | 6.64 | 10.2 | 19.9 | > 25 | 0.842 | 3.17 | 2.66 | 1.8 | 1.26 | 4.87 | 1.53 | 1.4 | 4.91 | 2.84 |
| CCOC(=O)Nc1nc2ccc(Cn3cccc3)cc2[nH]1 | > 100 | > 26.5 | 20 | > 100 | > 100 | > 100 | > 100 | > 100 | > 100 | > 100 | – | – | – | – | – | – | – | – | – | – |
| NOCC(=O)O | > 100 | > 100 | > 100 | > 100 | > 100 | > 100 | > 100 | > 100 | > 100 | > 100 | > 100 | > 100 | > 100 | > 100 | 49.5 | > 100 | > 100 | > 100 | > 100 | > 100 |
| c1ccc2c(c1)CCC/C2=N\OCC1CO1 (stereo not given) | > 100 | > 100 | > 100 | > 100 | > 100 | > 100 | > 100 | > 100 | > 100 | > 100 | – | – | – | – | – | – | – | – | – | – |
| O=C(/C=C/c1ccc(F)cc1)c1ccc(Cl)cc1Cl | > 100 | > 100 | > 100 | 96.5 | > 100 | 63.9 | > 100 | > 100 | 77.8 | > 100 | 91.8 | 52.7 | 77.3 | 32.4 | 33.5 | 26.2 | > 100 | > 100 | 23.7 | 43.8 |
| O=[N+]([O-])c1cccc(/C=N\NS(=O)(=O)c2ccc(Cl)cc2)c1O | > 100 | > 100 | > 100 | > 100 | > 100 | > 100 | > 100 | > 100 | > 100 | > 100 | – | – | – | – | – | – | – | – | – | – |
| COc1ccc(CN(C)c2ccc(CO)c(Cl)c2)cc1 | 92.2 | 71.2 | > 100 | 2.9 | 55.6 | > 86.7 | 88.8 | 65.6 | > 100 | > 100 | 9.38 | 13.7 | 3.35 | 0.439 | 5.75 | 25.8 | 18.8 | 21 | 34 | 21 |
| O=c1c2c(nc3n1CCS3)[nH]c1ccccc12 | > 100 | > 100 | > 100 | > 100 | > 100 | > 100 | > 100 | > 100 | > 100 | > 100 | 94.3 | > 100 | > 100 | > 100 | 90.1 | > 100 | > 100 | > 100 | > 100 | > 100 |
| CCOC(=O)NC(=O)c1cn(CC(=O)NCC(=O)NCC(=O)NCCCN2CCN(CCCNC(=O)CNC(=O)CNC(=O)Cn3cc(C(=O)NC(=O)OCC)c(=O)[nH]c3=O)CC2)c(=O)[nH]c1=O | > 100 | > 100 | > 100 | > 100 | > 100 | > 100 | > 100 | > 100 | > 100 | > 100 | – | – | – | – | – | – | – | – | – | – |
| COC(=O)c1s/c(=N\C(=S)N(C)C)n(-c2ccccc2)c1C(=O)OC | > 100 | > 100 | > 100 | > 100 | > 100 | > 100 | > 100 | > 100 | > 100 | > 100 | – | – | – | – | – | – | – | – | – | – |
| O=C(Nc1cc(Cl)c(Cl)cc1Cl)C(=O)C1C=CCS1(=O)=O (stereo not given) | > 100 | > 100 | > 100 | > 100 | > 100 | > 100 | > 100 | > 100 | > 100 | > 100 | – | – | – | – | – | – | – | – | – | – |
| C=CC1(C(=O)O)CCC(C(C)(C)C)CC1 (stereo not given) | > 100 | > 100 | > 100 | > 100 | > 100 | > 100 | > 100 | > 100 | > 100 | > 100 | – | – | – | – | – | – | – | – | – | – |
| Cc1[nH]c2ccccc2c1C1Cc2ccccc2N1C(=O)/C=C\C(=O)O (stereo not given) | > 100 | > 100 | 99.4 | > 100 | > 100 | > 100 | > 100 | > 100 | 68.6 | > 100 | – | – | – | – | – | – | – | – | – | – |
| COc1ccc(NC(=O)C(=O)C(C(=O)c2ccccc2)C2OC(=O)c3ccccc32)c([N+](=O)[O-])c1 (stereo not given) | > 100 | > 100 | > 100 | > 100 | > 100 | > 100 | > 100 | > 100 | > 100 | > 100 | – | – | – | – | – | – | – | – | – | – |
